Reference: ChEMBL document CHEMBL4017504, “Blockade of Asparagine Endopeptidase Inhibits Cancer Metastasis” (J Med Chem, 2017)
Activity calls are given as the source filed them. The calls are words filed in the database; no cut-off is given here.

Experiments:
Legumain (Homo sapiens) = target: T1, Legumain (Homo sapiens) (UniProt Q99538); assay: Inhibition of AEP (unknown origin) assessed as residual activity at 1 uM using Cbz-Ala-Ala-Asn-AMC as substrate after 15 mins by fluorescence assay relative to control
T1 sequence (whole entry): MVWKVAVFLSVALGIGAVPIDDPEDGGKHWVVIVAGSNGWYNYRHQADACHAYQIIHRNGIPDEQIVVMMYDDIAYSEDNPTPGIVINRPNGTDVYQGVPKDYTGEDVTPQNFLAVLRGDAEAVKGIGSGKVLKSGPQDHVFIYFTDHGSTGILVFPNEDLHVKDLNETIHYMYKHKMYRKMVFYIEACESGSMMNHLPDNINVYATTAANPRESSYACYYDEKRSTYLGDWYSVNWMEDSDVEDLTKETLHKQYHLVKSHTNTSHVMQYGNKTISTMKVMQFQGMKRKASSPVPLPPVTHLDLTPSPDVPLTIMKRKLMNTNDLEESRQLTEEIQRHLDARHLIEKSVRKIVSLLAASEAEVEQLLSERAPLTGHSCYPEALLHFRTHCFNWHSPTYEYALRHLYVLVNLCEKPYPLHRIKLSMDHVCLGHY

Legumain (Mus musculus) = target: T2, Legumain (Mus musculus) (UniProt O89017); assay: Inhibition of AEP in mouse kidney by HTS assay
T2 sequence (whole entry): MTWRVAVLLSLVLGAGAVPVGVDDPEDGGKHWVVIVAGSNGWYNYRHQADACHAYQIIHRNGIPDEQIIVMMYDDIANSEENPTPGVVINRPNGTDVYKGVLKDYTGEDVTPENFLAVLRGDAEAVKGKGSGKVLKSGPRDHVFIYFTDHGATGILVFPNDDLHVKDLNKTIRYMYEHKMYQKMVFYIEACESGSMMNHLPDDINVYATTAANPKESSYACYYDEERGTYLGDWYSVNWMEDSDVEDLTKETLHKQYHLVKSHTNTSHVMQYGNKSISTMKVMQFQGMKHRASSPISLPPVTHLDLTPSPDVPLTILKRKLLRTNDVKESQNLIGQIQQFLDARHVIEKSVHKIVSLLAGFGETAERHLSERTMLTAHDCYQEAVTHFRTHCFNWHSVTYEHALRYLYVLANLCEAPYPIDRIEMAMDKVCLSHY

Legumain [1] = target: T3, Legumain (Homo sapiens, UniProt Q99538); assay: Competitive inhibition of AEP (unknown origin) using varying levels of Z-AAN-AMC substrate after 10 mins by Lineweaver-Burk plot analysis
T3 sequence (Q99538 whole entry): T1 sequence (whole entry)

[2] = Apparent permeability across apical to basolateral side in human Caco2 cells after 2 hrs by LC-MS/MS method; assay type: ADME, cell-based; conditions: caco-2, 2 h
[3] = Apparent permeability across basolateral to apical side in human Caco2 cells after 2 hrs by LC-MS/MS method; assay type: ADME, cell-based; conditions: caco-2, 2 h
[4] = Inhibition of cathepsin-L (unknown origin); parameters: species or system Homo sapiens
Cathepsin S = Cathepsin S (Homo sapiens, UniProt P25774); assay: Inhibition of cathepsin-S (unknown origin)
Sequence of Cathepsin S (P25774 whole entry): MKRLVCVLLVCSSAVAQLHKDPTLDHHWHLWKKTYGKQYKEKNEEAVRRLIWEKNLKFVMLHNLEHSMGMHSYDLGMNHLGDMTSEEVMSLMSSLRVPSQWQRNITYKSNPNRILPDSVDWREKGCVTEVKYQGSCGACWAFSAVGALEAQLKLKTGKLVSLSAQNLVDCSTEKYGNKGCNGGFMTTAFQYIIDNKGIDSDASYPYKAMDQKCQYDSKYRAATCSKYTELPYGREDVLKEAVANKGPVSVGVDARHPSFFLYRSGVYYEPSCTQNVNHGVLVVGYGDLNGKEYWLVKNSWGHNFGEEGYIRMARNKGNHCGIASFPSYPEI

Legumain [5] = target: T3, Legumain; assay: Inhibition of AEP (unknown origin) using Cbz-Ala-Ala-Asn-AMC as substrate after 15 mins by fluorescence assay
Caspase-3 = target: T4, Caspase-3 (Homo sapiens, UniProt P42574); assay: Inhibition of caspase-3 (unknown origin)
T4 sequence (P42574 whole entry): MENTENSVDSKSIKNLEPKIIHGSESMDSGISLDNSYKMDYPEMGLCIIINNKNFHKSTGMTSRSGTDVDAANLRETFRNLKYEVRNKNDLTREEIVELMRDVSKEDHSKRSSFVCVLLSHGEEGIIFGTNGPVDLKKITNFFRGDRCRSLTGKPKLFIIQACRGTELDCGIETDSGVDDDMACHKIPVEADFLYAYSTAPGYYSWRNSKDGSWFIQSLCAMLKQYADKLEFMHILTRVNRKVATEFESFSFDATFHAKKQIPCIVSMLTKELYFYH

Caspase-8 = Caspase-8 (Homo sapiens, UniProt Q14790); assay: Inhibition of caspase-8 (unknown origin)
Sequence of Caspase-8 (Q14790 217-374 limits assumed): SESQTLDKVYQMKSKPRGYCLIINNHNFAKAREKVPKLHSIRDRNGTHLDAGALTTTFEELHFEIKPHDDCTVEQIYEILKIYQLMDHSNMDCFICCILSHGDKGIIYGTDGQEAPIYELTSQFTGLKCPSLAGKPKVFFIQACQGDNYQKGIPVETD
Sequence of Caspase-8 (Q14790 385-479 limits assumed): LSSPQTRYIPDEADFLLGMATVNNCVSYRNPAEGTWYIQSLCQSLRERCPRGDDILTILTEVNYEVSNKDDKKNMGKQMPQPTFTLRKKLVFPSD

Homo sapiens = organism: Homo sapiens; assay: Selectivity ratio of IC50 for cathepsin-L (unknown origin) to IC50 for AEP (unknown origin)
MDA-MB-231 [6] = assay: Cytotoxicity against human MDA-MB-231 cells assessed as reduction in cell viability up to 2 uM by MTT assay; assay type: cell-based
MDA-MB-435 [7] = assay: Cytotoxicity against human MDA-MB-435 cells assessed as reduction in cell viability up to 2 uM by MTT assay; assay type: cell-based
MDA-MB-231 [8] = assay: Anti-invasive activity against human MDA-MB-231 cells by crystal violet staining based microscopic method; assay type: functional, cell-based
MDA-MB-435 [9] = assay: Anti-invasive activity against human MDA-MB-435 cells by crystal violet staining based microscopic method; assay type: functional, cell-based
MDA-MB-231 [10] = assay: Anti-invasive activity against human MDA-MB-231 cells at 2 uM by crystal violet staining based microscopic method relative to control; assay type: functional
MDA-MB-435 [11] = assay: Anti-invasive activity against human MDA-MB-435 cells at 2 uM by crystal violet staining based microscopic method relative to control; assay type: functional
MDA-MB-231 [12] = assay: Anti-migratory activity against human MDA-MB-231 cells up to 2 uM by transwell assay relative to control; assay type: functional
MDA-MB-435 [13] = assay: Anti-migratory activity against human MDA-MB-435 cells up to 2 uM by transwell assay relative to control; assay type: functional
MDA-MB-435 [14] = assay: Anti-invasive activity against human MDA-MB-435 cells harboring AEP siRNA up to 2 uM by crystal violet staining based microscopic method; assay type: functional, cell-based
MDA-MB-231 [15] = assay: Anti-invasive activity against human MDA-MB-231 cells harboring AEP siRNA up to 2 uM by crystal violet staining based microscopic method; assay type: functional, cell-based
MDA-MB-231 [16] = assay: Antitumor activity against human MDA-MB-231 cells xenografted in nude mouse assessed as metastatic nodules on lungs at 3 mg/kg, po via gavage for 42 consecutive days by hematoxylin and eosin staining based microscopic method relative to control; assay type: functional
MDA-MB-231 [17] = assay: Antitumor activity against human MDA-MB-231 cells xenografted in nude mouse assessed as metastatic nodules on lungs at 10 mg/kg, po via gavage for 42 consecutive days by hematoxylin and eosin staining based microscopic method relative to control; assay type: functional
MDA-MB-231 [18] = assay: Antitumor activity against human MDA-MB-231 cells xenografted in nude mouse assessed as reduction in mammary tumor weight at 3 to 10 mg/kg, po via gavage for 42 consecutive days; assay type: functional, organism-based
Mus musculus [19] = assay: Toxicity in nude mouse xenografted with human MDA-MB-231 cells assessed as abnormality in kidney at 3 to 10 mg/kg, po via gavage for 42 consecutive days by hematoxylin and eosin staining based microscopic method; assay type: organism-based; conditions: in vivo
Mus musculus [20] = assay: Toxicity in nude mouse xenografted with human MDA-MB-231 cells assessed as body weight loss at 3 to 10 mg/kg, po via gavage for 42 consecutive days; assay type: organism-based; conditions: in vivo
Mus musculus [21] = assay: Toxicity in nude mouse xenografted with human MDA-MB-231 cells assessed as abnormality in bone marrow at 3 to 10 mg/kg, po via gavage for 42 consecutive days by hematoxylin and eosin staining based microscopic method; assay type: organism-based; conditions: in vivo
Mus musculus [22] = assay: Toxicity in nude mouse xenografted with human MDA-MB-231 cells assessed as abnormality in liver at 3 to 10 mg/kg, po via gavage for 42 consecutive days by hematoxylin and eosin staining based microscopic method; assay type: organism-based; conditions: in vivo
Mus musculus [23] = assay: Toxicity in nude mouse xenografted with human MDA-MB-231 cells assessed as effect on blood count at 3 to 10 mg/kg, po via gavage for 42 consecutive days by hematoxylin and eosin staining based microscopic method; assay type: organism-based; conditions: in vivo
Mus musculus [24] = assay: Toxicity in nude mouse xenografted with human MDA-MB-231 cells assessed as increase in spleen size at 3 to 10 mg/kg, po via gavage for 42 consecutive days; assay type: organism-based; conditions: in vivo
MDA-MB-231 [25] = assay: Cytotoxicity against human MDA-MB-231 cells assessed as reduction in cell viability up to 10 uM by MTT assay; assay type: cell-based
MDA-MB-231 [26] = assay: Inhibition of MMP2 cleavage in human MDA-MB-231 cells harboring AEP siRNA up to 10 uM by gelatin zymography assay; assay type: functional, cell-based
Mus musculus [27] = assay: Reduction in ratio of cleaved MMP2 to full-length MMP2 in mammary tumor of nude mouse xenografted with human MDA-MB-231 cells at 3 to 10 mg/kg, po via gavage for 42 consecutive days by gelatin zymography assay; assay type: functional, organism-based

Cn1c(S)nc2c1c(=O)[nH]c(=O)n2C
Activity (Legumain (Homo sapiens)): 11.5%

Cn1c(=O)[nH]c(=O)c2c1nc(S)n2CC(O)COc1ccc(Cl)cc1 (stereo unspecified)
inhibition (Legumain (Mus musculus)): Active
Ki (Legumain [1]): 0.105 µM
Papp [2]: 1.1 ×10⁻⁶ cm/s
Papp [3]: 20.3 ×10⁻⁶ cm/s
IC50 [4]: > 200 µM
IC50 (Cathepsin S): > 200 µM

CC(=O)Cn1c(S)nc2c1c(=O)[nH]c(=O)n2C
Activity (Legumain (Homo sapiens)): 69.4%

Cc1ccc(Cn2c(S)nc3c2c(=O)[nH]c(=O)n3C)cc1
Activity (Legumain (Homo sapiens)): 12.3%

CCCCn1c(S)nc2c1c(=O)[nH]c(=O)n2C
Activity (Legumain (Homo sapiens)): 14.8%

Cn1c(=O)c2c(nc(S)n2C)n(C)c1=O
Activity (Legumain (Homo sapiens)): 16.1%
IC50 [4]: 80.5 µM
IC50 (Legumain [5]): 0.18 µM
IC50 (Cathepsin S): > 200 µM
IC50 (Caspase-3): 185 µM
IC50 (Caspase-8): > 200 µM
Ratio IC50 (Homo sapiens): 500

Cn1c(=O)[nH]c(=O)c2c1nc(S)n2C[C@H](O)COc1ccccc1
Activity (Legumain (Homo sapiens)): 34.6%

Cc1ccc(Cn2c(S)nc3c2c(=O)n(C)c(=O)n3C)cc1
Activity (Legumain (Homo sapiens)): 17.2%

COc1ccc(OC[C@@H](O)Cn2c(S)nc3c2c(=O)[nH]c(=O)n3C)cc1
Activity (Legumain (Homo sapiens)): 18.5%

Cn1c(S)nc2c1c(=O)n(Cc1ccccc1)c(=O)n2C
IC50 [4]: > 200 µM
IC50 (Cathepsin S): > 200 µM
IC50 (Caspase-3): > 200 µM
IC50 (Caspase-8): > 200 µM

CCn1c(S)nc2c1c(=O)[nH]c(=O)n2C
Activity (Legumain (Homo sapiens)): 13.8%

CCn1c(=O)c2c(nc(S)n2C)n(C)c1=O
IC50 [4]: 162 µM
IC50 (Cathepsin S): > 200 µM
IC50 (Caspase-3): > 200 µM
IC50 (Caspase-8): > 200 µM
Activity (MDA-MB-231 [6]): Non-Toxic
Activity (MDA-MB-435 [7]): Non-Toxic
Activity (MDA-MB-231 [8]): Dose-dependent effect
Activity (MDA-MB-435 [9]): Dose-dependent effect
inhibition at 2 µM (MDA-MB-231 [10]): 75%
inhibition at 2 µM (MDA-MB-435 [11]): 75%
inhibition (INH) (MDA-MB-231 [12]): 25%
inhibition (INH) (MDA-MB-435 [13]): 40%
Activity (MDA-MB-435 [14]): inactive
Activity (MDA-MB-231 [15]): inactive
Activity (MDA-MB-231 [16]): 33%
Activity (MDA-MB-231 [17]): 17%
Activity (MDA-MB-231 [18]): Active
Activity (Mus musculus [19]): Non-Toxic
Activity (Mus musculus [20]): Non-Toxic
Activity (Mus musculus [21]): Non-Toxic
Activity (Mus musculus [22]): Non-Toxic
Activity (Mus musculus [23]): Non-Toxic
Activity (Mus musculus [24]): Toxic
Activity (MDA-MB-231 [25]): Non-Toxic
inhibition (MDA-MB-231 [26]): inactive
Activity (Mus musculus [27]): Active

Cn1c(=O)n(Cc2ccccc2)c(=O)c2c1nc(S)n2Cc1ccccc1
Activity (Legumain (Homo sapiens)): 17.2%

Cn1c(=O)c2c(ncn2C)n(C)c1=O
Activity (Legumain (Homo sapiens)): 74.3%

Cn1c(=O)c2c(nc(S(=O)(=O)c3ccccc3)n2C)n(C)c1=O
Activity (Legumain (Homo sapiens)): 98.9%

CC[C@H](C)n1c(S)nc2c1c(=O)[nH]c(=O)n2C
Activity (Legumain (Homo sapiens)): 14.1%

CC(C)Cn1c(S)nc2c1c(=O)[nH]c(=O)n2C
Activity (Legumain (Homo sapiens)): 15.7%

CCn1c(S)nc2c1c(=O)n(C)c(=O)n2C
Activity (Legumain (Homo sapiens)): 15.9%

C=CCn1c(S)nc2c1c(=O)n(C)c(=O)n2C
Activity (Legumain (Homo sapiens)): 18.1%

CCCn1c(S)nc2c1c(=O)[nH]c(=O)n2C
Activity (Legumain (Homo sapiens)): 14.9%

Cn1c(=O)[nH]c(=O)c2c1nc(S)n2C[C@H](O)CO
Activity (Legumain (Homo sapiens)): 85.4%

Cn1c(=O)c2c(nc(S(C)(=O)=O)n2C)n(C)c1=O
Activity (Legumain (Homo sapiens)): 98.3%

COCCn1c(S)nc2c1c(=O)[nH]c(=O)n2C
Activity (Legumain (Homo sapiens)): 13.8%

Cc1ncc2c(=O)[nH]c(=O)n(C)c2n1
Activity (Legumain (Homo sapiens)): 91.9%

CSc1nc2c(c(=O)n(C)c(=O)n2C)n1C
Activity (Legumain (Homo sapiens)): 70.5%

Cn1ccnc1Sc1nc2c(c(=O)n(C)c(=O)n2C)n1C
Activity (Legumain (Homo sapiens)): 100%

CC(C)n1c(S)nc2c1c(=O)n(C)c(=O)n2C
Activity (Legumain (Homo sapiens)): 17.8%
